Source: patent US4564613A, “Pyridoindole derivatives, compositions and use” (Troponwerke GmbH & Co., priority 1983, dated 1986)

Legend:
[1] = system: ptosis in mice induced by tetrabenazine; test: Tetrabenazine antagonism (ptosis in mice induced by tetrabenazine); assay type: in vivo; settings: Mus musculus, ip, compound intraperitoneally, 20 mg/kg of tetrabenazine intraperitoneally, read-out: ED50 (dose at which the ptosis induced by tetrabenazine is reduced to 50%)
Method: (§1) Some test results for the new compounds of the general formula I which were tested for anxiolytic, nootropic and antidepressive properties are given below. The pilot tests used were inhibition of footshock induced aggression (Tedeschi et al., J. Pharmacol. Exp. Ther. 129, p. 28-34, 1954), for the anxiolytic action and the antitetrabenazine test (J. L. Howard et al., in: Antidepressants: Neurochemical, Behavioral and Clinical Perspectives, edited by S. J. Enna et al., Raven Press N.Y., pages 107-120, 1981) and amphetamine potentiation test (J. L. Howard et al., in: Antidepressants: Neurochemical, Behavioral and Clinical Perspectives, edited by S. J. Enna et al., Raven Press N.Y., pages 107-120, 1981) for the antidepressive action.
Substances having an antidepressive action antagonize the ptosis in mice induced by tetrabenazine. The ED50 value indicates the dose at which the ptosis induced by 20 mg/kg of tetrabenazine intraperitoneally is reduced to 50%.

[2] = system: amphetamine-induced stereotype behavior in rats; test: Amphetamine potentiation (amphetamine-induced stereotype behavior in rats); assay type: in vivo; settings: Rattus norvegicus, ip, compound intraperitoneally, 2 mg/kg of DL-amphetamine sulphate intravenous, read-out: ED50 (dose at which the amphetamine-induced behavior is intensified by 50%)
Method: as §1
Substances having an antidepressive action potentiate the amphetamine-induced stereotype behavior in rats.
The ED50 value given is the dose at which the amphetamine-induced behavior is intensified by 50% following intravenous administration of 2 mg/kg of DL-amphetamine sulphate.

CN1Cc2c(ccc3c2NC(=O)C3=O)C(c2ccc(F)cc2)C1 (centres unmarked) [1 a]
ED50 [1]: 1 mg/kg

CN1Cc2c(ccc3c2NCC3)C(c2ccc(F)cc2)C1 (centres unmarked) [3 b]
ED50 [2]: 2.2 mg/kg | ED50 [1]: 0.01 mg/kg

CN1Cc2c(ccc3c2N(C)CC3)C(c2ccc(F)cc2)C1 (centres unmarked) [Compound 4, 1,8-Dimethyl-6-(fluorophenyl)-2,3,6,7,8,9-hexahydro-1H-pyrido[4,3-g]indole]
ED50 [1]: 0.01 mg/kg

CN1Cc2c(ccc3c2NC(=O)C3=O)C(c2ccccc2)C1 (centres unmarked) [1 b]
ED50 [1]: 2 mg/kg

CN1Cc2c(ccc3cc[nH]c23)C(c2ccc(F)cc2)C1 (centres unmarked) [2 b]
ED50 [2]: 3.9 mg/kg | ED50 [1]: 0.2 mg/kg

CN1Cc2c(ccc3c2NCC3)C(c2ccccc2)C1 (centres unmarked) [3 a]
ED50 [2]: 1.2 mg/kg | ED50 [1]: 0.1 mg/kg

CN1Cc2c(ccc3cc[nH]c23)C(c2ccccc2)C1 (centres unmarked) [2 a]
ED50 [2]: 2.4 mg/kg | ED50 [1]: 0.3 mg/kg
